We go through eight compounds from US8492395B2, “7-substituted quinazolinone compounds and compositions comprising the same” (Celgene Corporation, priority 2007, dated 2013).

The subject of data set [1] is Namalwa AG4 cells. The experiment in a line: Cell proliferation assay (3H-thymidine incorporation). It counts as cell-based. The conditions noted are these: one collective range stated for the tested compounds, read-out: IC50 values for inhibiting proliferation of Namalwa AG4 cells. As for the experimental part: 5.48.3 Cell Proliferation Assay
Cell lines Namalwa, MUTZ-5, and UT-7 are obtained from the Deutsche Sammlung von Mikroorganismen und Zellkulturen GmbH (Braunschweig, Germany). The cell line KG-1 is obtained from the American Type Culture Collection (Manassas, Va., USA). Cell proliferation as indicated by ^3H-thymidine incorporation is measured in all cell lines as follows.
Cells are plated in 96-well plates at 6000 cells per well in media. The cells are pre-treated with compounds at about 100, 10, 1, 0.1, 0.01, 0.001, 0.0001 and 0 μM in a final concentration of about 0.25% DMSO in triplicate at 37° C. in a humidified incubator at 5% CO2 for 72 hours. One microcurie of 3H-thymidine (Amersham) is then added to each well, and cells are incubated again at 37° C. in a humidified incubator at 5% CO2 for 6 hours. The cells are harvested onto UniFilter GF/C filter plates (Perkin Elmer) using a cell harvester (Tomtec), and the plates are allowed to dry overnight. Microscint 20 (Packard) (25 μl/well) is added, and plates are analyzed in TopCount NXT (Packard). Each well is counted for one minute. Percent inhibition of cell proliferation is calculated by averaging all triplicates and normalizing to the DMSO control (0% inhibition). Each compound is tested in each cell line in three separate experiments. Final IC50s are calculated using non-linear regression, sigmoidal dose-response, constraining the top to 100% and bottom to 0%, allowing variable slope. (GraphPad Prism v3.02).
Abilities of certain compounds for inhibiting proliferation of Namalwa AG4 cells were determined using procedures substantially similar to those described in Section 5.48.3, above.

Data set [2] concerns IL-2. As to the kind of experiment: IL-2 production by T cells (anti-CD3 stimulated, ELISA). It counts as cell-based. The conditions noted are these: T-cell, one collective range stated for the tested compounds, read-out: EC50 values for stimulating the production of IL-2. The procedure:
5.48.2 […] and MIP-3α Production by T Cells
PBMC are depleted of adherent monocytes by placing 1×10^8 PBMC in 10 ml complete medium (RPMI 1640 supplemented with 10% heat-inactivated fetal bovine serum, 2 mM L-glutamine, 100 U/ml penicillin, and 100 μg/ml streptomycin) per 10 cm tissue culture dish, in 37° C., 5% CO2 incubator for 30-60 minutes. The dish is rinsed with medium to remove all non-adherent PBMC. T cells are purified by negative selection using the following antibody (Pharmingen) and Dynabead (Dynal) mixture for every 1×10^8 non-adherent PBMC: 0.3 ml Sheep anti-mouse IgG beads, 15 μl anti-CD16, 15 μl anti-CD33, 15 μl anti-CD56, 0.23 ml anti-CD19 beads, 0.23 ml anti-HLA class II beads, and 56 μl anti-CD14 beads. The cells and bead/antibody mixture is rotated end-over-end for 30-60 minutes at 4° C. Purified T cells are removed from beads using a Dynal magnet. Typical yield is about 50% T cells, 87-95% CD3^+ by flow cytometry.
Tissue culture 96-well flat-bottom plates are coated with anti-CD3 antibody OKT3 at 5 μg/ml in PBS, 100 μl per well, incubated at 37° C. for 3-6 hours, then washed four times with complete medium 100 μl/well just before T cells are added. Compounds are diluted to 20 times of final in a round bottom tissue culture 96-well plate. Final concentrations are about 10 μM to about 0.00064 μM. A 10 mM stock of compounds provided herein is diluted 1:50 in complete for the first 20× dilution of 200 μM in 2% DMSO and serially diluted 1:5 into 2% DMSO. Compound is added at 10 μl per 200 μl culture, to give a final DMSO concentration of 0.1%. Cultures are incubated at 37° C., 5% CO2 for 2-3 days, and supernatants analyzed for IL-2 and MIP-3α by ELISA (R&D Systems). IL-2 and MIP-3 cc levels are normalized to the amount produced in the presence of an amount of a compound provided herein, and EC50s calculated using non-linear regression, sigmoidal dose-response, constraining the top to 100% and bottom to 0%, allowing variable slope (GraphPad Prism v3.02).
Abilities of certain compounds for stimulating the production of IL-2 were determined using procedures substantially similar to those described in Section 5.48.2, above.
(In general: An ELISA detects its analyte on a solid surface through an enzyme-linked reagent.)

Take `Cc1nc2ccc(CNC(=O)Nc3ccc(OC(F)(F)F)cc3)cc2c(=O)n1C1CCC(=O)NC1=O` (centres unmarked) [1-[3-(2,6-dioxo-piperidin-3-yl)-2-methyl-4-oxo-3,4-dihydro-quinazolin-6-ylmethyl]-3-(4-trifluoromethoxy-phenyl)-urea]: the melting point was 201 to 203 °C. For the same compound, the IC50 in data set [1] was 10 to 5500 nM. In addition, the EC50 in data set [2] lay within 100 to 3500 nM.

In the case of `CCCCCCNC(=O)NCc1ccc2nc(C)n(C3CCC(=O)NC3=O)c(=O)c2c1` (centres unmarked) [1-[3-(2,6-dioxo-piperidin-3-yl)-2-methyl-4-oxo-3,4-dihydro-quinazolin-6-ylmethyl]-3-hexyl-urea], the melting point was 220 to 222 °C. Also, in data set [1], the IC50 lay in the range of 10 to 5500 nM. In data set [2], the half-maximal effective concentration (EC50) is 100 to 3500 nM.

With `Cc1nc2ccc(N)cc2c(=O)n1C1CCC(=O)NC1=O` (centres unmarked) [3-(6-amino-2-methyl-4-oxo-4H-quinazolin-3-yl)-piperidine-2,6-dione], in data set [1], the IC50 fell in the range of 10 to 5500 nM. For the same compound, the EC50 in data set [2] is 100 to 3500 nM.

As to `Cc1nc2ccc(O)cc2c(=O)n1C1CCC(=O)NC1=O` (centres unmarked) [3-(6-hydroxy-2-methyl-4-oxo-4H-quinazolin-3-yl)-piperidine-2,6-dione], the melting point was 315 to 317 °C. Moreover, the EC50 in data set [2] was 100 to 3500 nM.

As to `Cc1nc2cc(N)ccc2c(=O)n1C1CCC(=O)NC1=O` (centres unmarked) [3-(7-amino-2-methyl-4-oxo-4H-quinazolin-3-yl)-piperidine-2,6-dione], in data set [1], the IC50 was in the range of 10 to 5500 nM. In addition, the half-maximal effective concentration (EC50) in data set [2] lay in the range of 100 to 3500 nM.

For the compound `Cc1nc2cc(Br)ccc2c(=O)n1C1CCC(=O)NC1=O` (centres unmarked) [3-(7-bromo-2-methyl-4-oxo-4H-quinazolin-3-yl)-piperidine-2,6-dione], the IC50 in data set [1] was 10 to 5500 nM. Further, the EC50 in data set [2] was in the range of 100 to 3500 nM.

`Cc1nc2cc(Cl)ccc2c(=O)n1C1CCC(=O)NC1=O` (centres unmarked) [3-(7-chloro-2-methyl-4-oxo-4H-quinazolin-3-yl)-piperidine-2,6-dione] showed a melting point of 291 to 293 °C. In addition, the IC50 in data set [1] lay in the range of 10 to 5500 nM. The EC50 in data set [2] is 100 to 3500 nM.

Take `Cc1nc2cc(F)ccc2c(=O)n1C1CCC(=O)NC1=O` (centres unmarked) [3-(7-fluoro-2-methyl-4-oxo-4H-quinazolin-3-yl)-piperidine-2,6-dione]: the melting point lay in the range of 243 to 245 °C. For the same compound, the IC50 in data set [1] was 10 to 5500 nM. For the same compound, the 50% effective concentration (EC50) in data set [2] is 100 to 3500 nM.

In general, melting point refers to the temperature of the solid-liquid transition. Usually EC50 stands for the midpoint of the concentration-response curve.
